Measurements: US7528141B2, “Use of cyclopenta[g]quinazoline derivatives for treating cancer” (BTG International Limited, priority 2001, dated 2009)
Several values for one entry are separate records, joined by “and”; a condition that tells them apart may be missing. Identical values can stand only once. Like-named read-outs stand apart in the source and are kept apart here.

What was measured:
[1] = molecular target: T1, reduced-folate carrier (RFC) (Mus musculus, UniProt P41438); assay: Inhibition of 3H MTX uptake in L1210 cells; type: cell-based; conditions: Inhibition of 3H MTX uptake Ki, L1210, mouse L1210 tumor cells; high Ki = low affinity for RFC
T1 construct: endogenous in cells; host or cells: L1210
T1 sequence (P41438 1-512): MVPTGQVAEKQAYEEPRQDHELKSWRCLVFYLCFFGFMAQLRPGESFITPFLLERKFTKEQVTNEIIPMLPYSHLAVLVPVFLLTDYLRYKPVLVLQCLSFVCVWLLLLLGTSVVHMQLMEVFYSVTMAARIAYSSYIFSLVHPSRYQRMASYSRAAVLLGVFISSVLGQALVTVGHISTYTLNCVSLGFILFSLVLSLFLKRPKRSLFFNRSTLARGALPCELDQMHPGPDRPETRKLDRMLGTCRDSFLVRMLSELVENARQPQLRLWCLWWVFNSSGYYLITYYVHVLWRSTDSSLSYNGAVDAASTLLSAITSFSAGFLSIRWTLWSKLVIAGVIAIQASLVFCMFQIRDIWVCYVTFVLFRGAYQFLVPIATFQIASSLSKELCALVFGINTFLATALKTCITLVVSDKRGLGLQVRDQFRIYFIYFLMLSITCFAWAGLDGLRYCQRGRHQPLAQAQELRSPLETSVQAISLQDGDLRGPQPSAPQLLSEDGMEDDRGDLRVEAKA

KB cells = assay: Inhibition of cell growth, KB cells; conditions: for fold increased IC50 in presence of folic acid, KB: IC50 + 1 μM FA vs without FA;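 on all read-outs here: KB nasopharyngeal carcinoma cells express the α-folate receptor, and leucovorin at 20 nM was the folate source in the growth medium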
A431 cells = assay: Inhibition of cell growth, A431 cells; conditions: for fold increased IC50 in presence of folic acid, A431: IC50 + 1 μM FA vs without FA
A431-FBP cells = assay: Inhibition of cell growth, A431-FBP cells; conditions: for fold increased sensitivity compared with A431, A431-FBP: A431 IC50 vs A431-FBP IC50; for fold increased IC50 in presence of folic acid, A431-FBP: IC50 + 1 μM FA vs without FA
α-FR [2] = molecular target: T2, α-FR (Homo sapiens, UniProt P15328); assay: Binding to α-FR relative to folic acid, A431-FBP cells; conditions: human A431 cells transfected with α-FR; folic acid = 1
T2 construct: expressed in transfected cells; host or cells: A431 (human vulvar carcinoma)

α-FR [3] = molecular target: T3, α-FR (Mus musculus, UniProt P35846); assay: Binding to α-FR relative to folic acid, L1210-FBP cells; conditions: L1210-FBP mouse tumor cells overexpressing α-FR; folic acid = 1
T3 construct: endogenous in cells; host or cells: mouse L1210-FBP cells

[4] = molecular target: T4, reduced-folate carrier (RFC) (Homo sapiens, UniProt P41440); assay: Inhibition of 3H MTX uptake in W1L2 cells; type: cell-based; conditions: Inhibition of 3H MTX uptake Ki, W1L2, human lymphoblastoid W1L2 cells; high Ki = low affinity for RFC
T4 construct: endogenous in cells; host or cells: W1L2
T4 sequence (P41440 1-591): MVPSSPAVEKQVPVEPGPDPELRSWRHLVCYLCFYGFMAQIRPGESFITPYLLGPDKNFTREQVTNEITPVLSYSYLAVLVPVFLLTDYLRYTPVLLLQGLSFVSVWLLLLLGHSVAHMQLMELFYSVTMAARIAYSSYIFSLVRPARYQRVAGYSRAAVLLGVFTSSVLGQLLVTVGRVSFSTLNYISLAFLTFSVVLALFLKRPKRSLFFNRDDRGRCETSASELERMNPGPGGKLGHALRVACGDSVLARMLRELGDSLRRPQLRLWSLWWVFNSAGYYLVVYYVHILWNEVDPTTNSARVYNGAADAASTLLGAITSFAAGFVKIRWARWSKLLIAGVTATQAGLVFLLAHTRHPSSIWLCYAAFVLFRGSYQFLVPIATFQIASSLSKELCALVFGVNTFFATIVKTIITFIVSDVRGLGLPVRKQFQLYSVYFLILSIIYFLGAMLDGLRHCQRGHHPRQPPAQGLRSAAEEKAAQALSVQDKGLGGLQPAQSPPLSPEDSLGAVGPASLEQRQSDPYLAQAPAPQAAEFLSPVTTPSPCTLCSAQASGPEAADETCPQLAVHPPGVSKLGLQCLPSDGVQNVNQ

[5] = molecular target: T5, thymidylate synthase (TS) from L1210 mouse leukaemia cells (Mus musculus, UniProt P07607); assay: Inhibition of isolated L1210 thymidylate synthase; type: biochemical; conditions: read-out: Inhibition of isolated L1210 TS, Kiapp
T5 construct: obtained in partially purified form from L1210 mouse leukaemia cells; endogenous in cells; host or cells: L1210 mouse leukaemia cells (enzyme partially purified)

[6] = Homo sapiens, KB, read-out: Inhibition of cell growth, IC50, KB, 20 nM LV
[7] = read-out: Inhibition of cell growth, IC50, KB + 1 μM FA, 20 nM LV, + 1 μM folic acid
[8] = Homo sapiens, A-431, read-out: Inhibition of cell growth, IC50, A431
[9] = read-out: Inhibition of cell growth, IC50, A431 + 1 μM FA, 20 nM LV, + 1 μM folic acid
[10] = Homo sapiens, read-out: Inhibition of cell growth, IC50, A431-FBP
[11] = read-out: Inhibition of cell growth, IC50, A431-FBP + 1 μM FA, 20 nM LV, + 1 μM folic acid

T5 sequence (P07607 whole entry): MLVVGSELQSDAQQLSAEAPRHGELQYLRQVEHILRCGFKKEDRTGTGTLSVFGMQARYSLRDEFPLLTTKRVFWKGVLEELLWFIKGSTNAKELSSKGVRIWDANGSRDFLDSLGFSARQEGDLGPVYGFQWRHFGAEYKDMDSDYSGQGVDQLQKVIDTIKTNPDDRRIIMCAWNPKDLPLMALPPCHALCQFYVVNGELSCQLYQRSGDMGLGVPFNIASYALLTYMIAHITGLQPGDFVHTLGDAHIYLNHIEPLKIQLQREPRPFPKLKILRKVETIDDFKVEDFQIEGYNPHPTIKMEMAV
T3 sequence (P35846 25-232): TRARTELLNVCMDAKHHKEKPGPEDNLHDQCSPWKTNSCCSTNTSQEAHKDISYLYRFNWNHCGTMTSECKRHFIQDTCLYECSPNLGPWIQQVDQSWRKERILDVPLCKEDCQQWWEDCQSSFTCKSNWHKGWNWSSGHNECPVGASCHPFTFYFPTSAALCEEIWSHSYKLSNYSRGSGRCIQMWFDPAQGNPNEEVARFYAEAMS
T2 sequence (P15328 25-234): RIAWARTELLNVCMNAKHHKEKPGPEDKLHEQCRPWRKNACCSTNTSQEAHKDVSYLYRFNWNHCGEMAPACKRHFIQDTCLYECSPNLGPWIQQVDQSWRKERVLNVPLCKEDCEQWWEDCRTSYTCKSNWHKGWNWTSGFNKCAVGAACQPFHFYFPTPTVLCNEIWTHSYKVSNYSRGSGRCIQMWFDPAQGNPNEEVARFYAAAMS

| Ki [1] | fold increased IC50 in presence of folic acid, KB (KB cells; 20 nM LV) | IC50 (KB cells; [6]) | IC50 (KB cells; [7]) | fold increased IC50 in presence of folic acid, A431 (A431 cells; 20 nM LV) | IC50 (A431 cells; [8]) | IC50 (A431 cells; [9]) | fold increased IC50 in presence of folic acid, A431-FBP (A431-FBP cells; 20 nM LV) | IC50 (A431-FBP cells; [10]) | IC50 (A431-FBP cells; [11]) | Inverse relative affinity for α-FR, A431-FBP (α-FR [2]) | Inverse relative affinity for α-FR, L1210-FBP (α-FR [3]) | Ki [4] | Ki [5] | SMILES | fold increased sensitivity compared with A431, A431-FBP (A431-FBP cells; 20 nM LV) |
| --- | --- | --- | --- | --- | --- | --- | --- | --- | --- | --- | --- | --- | --- | --- | --- |
| > 250000 nM | (73) fold | 8 ± 1 nM | 580 ± 30 nM | (1) fold | 1400 ± 260 nM | 1200 ± 510 nM | (100) fold | 9.4 ± 4 nM | 930 ± 210 nM | 0.58 ± 0.017 | 0.73 ± 0.01 | 97000 nM and 315000 nM | 0.46 nM and 0.77 nM | C#CCN(c1ccc(C(=O)N[C@@H](CCC(=O)N[C@H](CCC(=O)O)C(=O)O)C(=O)O)c(F)c1)C1CCc2cc3nc(C)[nH]c(=O)c3cc21 (mixture of isomers) [CB300947 (R, S), N-{N-{4-[N-((6RS)-2methyl-4-oxo-3,4,7,8-tetrahydro-6H-cyclopenta[g]-quinazolin-6-yl)-N-(prop-2-ynyl)amino]-2-fluorobenzoyl}-L-γ-glutamyl}-D-glutamic acid] | (150) fold |
| > 250000 nM | (110) fold | 3.6 ± 1.5 nM | 390 ± 180 nM | (1) fold | 810 ± 310 nM | 970 ± 580 nM | (160) fold | 3 ± 2.1 nM | 490 ± 170 nM | 0.53 ± 0.07 | 0.66 ± 0.08 | 115000 ± 12000 nM | 0.33 ± 0.16 nM | C#CCN(c1ccc(C(=O)N[C@@H](CCC(=O)N[C@H](CCC(=O)O)C(=O)O)C(=O)O)cc1)[C@H]1CCc2cc3nc(C)[nH]c(=O)c3cc21 [CB300638 (S)] | (270) fold |
| 186000 ± 121000 nM | (79) fold | 6.2 ± 3 nM | 490 ± 140 nM | (1) fold | 1400 ± 820 nM | 1600 ± 1100 nM | (170) fold | 2.6 ± 1.8 nM | 430 ± 180 nM | 0.58 ± 0.032 | 0.61 ± 0.07 | 142000 ± 54000 nM | 0.16 nM and 0.17 nM | C#CCN(c1ccc(C(=O)N[C@@H](CCC(=O)N[C@H](CCC(=O)O)c2nnn[nH]2)C(=O)O)cc1)[C@H]1CCc2cc3nc(C)[nH]c(=O)c3cc21 [CB300907 (S)] | (540) fold |
